pIC50, pKi: −log10 of the molar value.
Tests used:
[1] = biological target: C. rugosa commercial lipase; design: method as in doi:10.1016/j.molcatb.2006.02.012; details: cited from earlier work
[2] = biological target: T1, CpLIP2 lipase (Candida parapsilosis, UniProt Q8NIN8); assay: Inhibition of CpLIP2 hydrolytic activity (ethyl oleate hydrolysis, GC); type: biochemical; details: for pKi: Ki, non-competitive or uncompetitive model
Protocol: The effect of inhibitor concentrations on the hydrolysis reaction rate in standard conditions was assumed to follow either a non-competitive or an uncompetitive model, corresponding to Equation (1):(1) Ki=I/ V0/Vi−1 where V0 and Vi are the initial rates of the reaction without or with inhibitor at concentration I.
Standard CpLIP2 hydrolytic activity measurement. Hydrolysis activities were determined by measuring the initial rates of fatty acid and esters production (µmol·min^−1·mL^−1), using ethyl oleate (C18:1, EE) as substrates. Specific activity is the total activity expressed in µmol·min^−1·mL^−1 in relation to protein concentration (mg·mL^−1). Experiments were conducted as described by. Hydrolysis of ethyl oleate (EO) was performed in aqueous emulsions at 30 °C. This emulsion consisted of 100 µmol·mL^−1 EO emulsified by sonication (Branson Sonifier 250, 20 s, 200 watts, 145 µm amplitude) in an aqueous solution of 20 g·L^−1 poly vinyl alcohol. The reactions of hydrolysis were prepared in glass test tube by adding 100 μL of ethyl oleate emulsion to 800 µL of sodium phosphate buffer 50 mM, pH 6.5; then the solutions were incubated in water bath at 30 °C for 5 min. The reaction was started by the addition of 100 µL of enzyme solution of CpLIP2 with final concentration 3 µg·mL^−1 with activity 2000 U/mL.
The enzyme solution was pre-incubated at 25 °C, with continuous stirring at 350 rpm. Pre-incubation was conducted with 1980 µL CpLIP2 lipase diluted in sodium NaH2PO4/Na2HPO4 phosphate buffer (50 mM, pH 6.5) containing 20 µL absolute EtOH at 2 different times (1 and 30 min). This pre-incubation phase was conducted in closed vials placed during 2 h on a Radleys StarFish Multi-Experiment Workstation. The reaction was conducted for 15 min at 30 °C, and then stopped by adding 950 µL of a mixture of ethanol/sulphuric acid (100:0.8, v/v). After the addition of 50 µL of internal standards (ethanolic solution of pentadecanoic acid and its ethyl and methyl esters, 1 µmol each), lipids were extracted from the mixture with 1 mL of hexane. Samples were then prepared for analyzing esters and free fatty acids by gas chromatography (GC) as follows. Hexane extract (200 µL) was reacted with 25 µL pyridine and 25 µL N-methyl-tri (methylsilyl)-trifluoroacetamide (MSTFA) as silylating agent. Mixtures were incubated in water bath at 50 °C for 20 min, and then samples were ready for analysis. Reaction rates were determined by the analysis of fat composition by capillary gas chromatography after 15 min reaction. It was checked that less than 30% of the total substrate was converted at the end of the 15 min reaction.
A Shimadzu GC 2010 plus gas chromatograph equipped with a flame ionization detector, an automatic sampler (injected volume 0.1 μL) and a split/splitless injector was used for analysis. The capillary column was a DB-5ht (15 m × 0.25 mm, Phenomenex, Le Pecq, France). The helium carrier flow was 1 mL min^−1and the split ratio was 1:50. Temperature conditions were, for reactions with individual substrates: injector 280 °C, detector 290 °C, oven 200–225 °C at 10 °C min^−1 then to 260 °C at 35 °C·min^−1 for ethyl ester (EE) and fatty acid (FA) of C18:1. Calibration curves were realized using emulsions of mixtures of FA and monoesters prepared according to the same protocol, without enzyme and alcohol.
In order to measure the residual lipase activity in the presence of potential inhibitors, the previous method was conducted in the presence and absence of the inhibitors. For each potential inhibitor, the lipase-catalyzed rate of hydrolysis was evaluated after a pre-incubation period between the lipase and the potential inhibitors, which were solubilized in absolute ethanol at 1% of final concentration. The preincubation was performed at 25 °C with continuous stirring at 350 rpm with different concentration of inhibitors (14, 27.5, 55 µM) which represented, respectively 25, 50, 100-fold the final lipase concentration (0.55 µM). […]

[3] = biological target: T1, CpLIP2 lipase; assay: Fluorescence resonance energy transfer between CpLIP2 and flavonols (Förster theory); type: binding
Text: Fluorescence emission spectra of CpLIP2 lipase overlap the UV absorption spectrum of each flavonol studied, that may induce fluorescence resonance energy transfer (FRET) governed by the binding distance r between the protein behaving as energy donor and the flavonol energy acceptor. The binding distance r can be calculated via Förster theory with the following Equations (10) and (11):(10) E=1−F/ F0=R06/ R06+r^6 where E is the energy transfer efficiency, which is the photons fraction absorbed and transferred by the donor to the acceptor, F and F0 are the fluorescence intensities of donor (CpLIP2) in the presence or absence of acceptor (flavonol) at the same concentrations. The parameter r is the distance between acceptor and donor, and R0 is the Förster distance, which is the critical energy transfer distance when 50% of the excitation energy is transferred from the donor to the acceptor. […] The value of R0 ranges from 20–90 Å for biological macromolecules.

[4] = biological target: T1, CpLIP2 lipase; assay: Fluorescence emission spectrum of CpLIP2 inhibited by THL; type: binding; details: 20-fold molar excess THL, pre-incubation at 25 °C for 30 min, excitation 285 nm
Protocol: As mentioned above, a mixture of 300 µL was pipetted in each well. 190 µL sodium phosphate buffer 50 mM, pH 7.0 with 100 µL of NaCl: EtOH (8:2, v/v) solution. […] In parallel, native and denatured lipases without THL were incubated in the same conditions. Denaturation of lipase was done by heating in water bath at 100 °C for 20 min.

T1 sequence (Q8NIN8 entry or part of it): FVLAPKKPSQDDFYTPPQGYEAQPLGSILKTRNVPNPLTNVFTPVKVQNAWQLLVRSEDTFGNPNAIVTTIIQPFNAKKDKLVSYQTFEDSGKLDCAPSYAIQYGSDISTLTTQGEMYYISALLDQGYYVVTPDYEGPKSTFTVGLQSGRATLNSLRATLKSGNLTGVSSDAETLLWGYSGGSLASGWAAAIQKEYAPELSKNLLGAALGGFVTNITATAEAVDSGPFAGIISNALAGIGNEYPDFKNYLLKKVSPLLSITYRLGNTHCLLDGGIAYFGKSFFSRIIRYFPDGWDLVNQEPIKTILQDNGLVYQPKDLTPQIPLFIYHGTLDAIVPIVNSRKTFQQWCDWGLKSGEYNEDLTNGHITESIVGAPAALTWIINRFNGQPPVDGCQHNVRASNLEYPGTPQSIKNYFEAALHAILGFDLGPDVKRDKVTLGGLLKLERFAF

| Molecule | pIC50 [1] | pKi ([2]; estimated after 1 min of pre-incubation) | pKi ([2]; estimated after 30 min of pre-incubation) | inhibition of CpLIP2 activity ([2]; after 1 min pre-incubation, concentration not given) | inhibition at 14 µM ([2]; read-out: inhibition of CpLIP2 catalytic activity) | remaining activity at 14 µM ([2]; read-out: residual activity, 14 µM (25-fold molar excess), 1 min pre-incubation) | remaining activity at 27.5 µM ([2]; read-out: residual activity, 27.5 µM (50-fold), 1 min pre-incubation) | remaining activity at 55 µM ([2]; read-out: residual activity, 55 µM (100-fold), 1 min pre-incubation) | occurrence of FRET with CpLIP2 lipase [3] | blue shift of CpLIP2 fluorescence emission maximum [4] |
| --- | --- | --- | --- | --- | --- | --- | --- | --- | --- | --- |
| (±)-catechin [reference compound] | 2.12 |  |  |  |  |  |  |  |  |  |
| CCCCCCCCCCC[C@@H](C[C@@H]1OC(=O)[C@H]1CCCCCC)OC(=O)[C@H](CC(C)C)NC=O [THL, tetrahydrolipstatin, reference compound] |  | 5.92 | 6.22 | ~100% | 90% | 17.7% | 3.9% | 2.3% | no FRET occurred | 4 nm |

Reference: article PMC6719172, “Inhibition of CpLIP2 Lipase Hydrolytic Activity by Four Flavonols (Galangin, Kaempferol, Quercetin, Myricetin) Compared to Orlistat and Their Binding Mechanisms Studied by Quenching of Fluorescence” (Molecules, 2019)
